In ChEMBL document CHEMBL3044691, “The stability and degradation of a new biological pesticide, pyoluteorin” (Pest Manag Sci, 2010):

Legend:
Type in all cases: physicochemical
[1] = Half life in phosphate buffer at pH 5.8 under dark condition
[2] = Half life in phosphate buffer at pH 7 under dark condition
[3] = Half life in water solution at 37 degC under dark condition
[4] = Half life in water solution at 248.5 mg/l initial concentration under dark condition
[5] = Half life in water solution at 502.5 mg/l initial concentration under dark condition
[6] = Half life in phosphate buffer at pH 6.2 at room temperature under sunlight
[7] = Half life in phosphate buffer at pH 5.8 at room temperature under sunlight
[8] = Half life in phosphate buffer at pH 7.8 at room temperature under sunlight
[9] = Half life in water solution at 121.5 mg/l initial concentration under dark condition
[10] = Half life in water solution at 54 degC under dark condition
[11] = Half life under high-pressure mercury lamp light at room temperature
[12] = Half life in water solution at 28 degC under dark condition
[13] = Half life in phosphate buffer at pH 7.4 at room temperature under sunlight
[14] = Half life under dark condition at room temperature
[15] = Half life in water solution at 375 mg/l initial concentration under dark condition
[16] = Half life in phosphate buffer at pH 7.8 under dark condition
[17] = Half life under fluorescent lamp light at room temperature
[18] = Half life under sunlight at room temperature
[19] = Half life in phosphate buffer at pH 7 at room temperature under sunlight
[20] = Half life in water solution at 70 degC under dark condition
[21] = Half life in phosphate buffer at pH 6.2 under dark condition
[22] = Half life in phosphate buffer at pH 6.6 under dark condition
[23] = Half life in phosphate buffer at pH 6.6 at room temperature under sunlight
[24] = Half life in water solution at 626.5 mg/l initial concentration under dark condition
[25] = Half life in phosphate buffer at pH 7.4 under dark condition
[26] = Half life under incandescent lamp light at room temperature

## O=C(c1cc(Cl)c(Cl)[nH]1)c1c(O)cccc1O [PYOLUTEORIN]
[1]
  half-life: 34.8 days
[2]
  half-life: 54.1 days
[3]
  half-life: 26.5 days
[4]
  half-life at 248.5 mg/l: 31.1 days
[5]
  half-life at 502.5 mg/l: 44.4 days
[6]
  half-life: 1.29 days
[7]
  half-life: 1.77 days
[8]
  half-life: 0.42 days
[9]
  half-life at 121.5 mg/l: 26.5 days
[10]
  half-life: 22 days
[11]
  half-life: 3.1 days
[12]
  half-life: 30 days
[13]
  half-life: 0.58 days
[14]
  half-life: 24.9 days
[15]
  half-life at 375 mg/l: 37.7 days
[16]
  half-life: 23.9 days
[17]
  half-life: 23.2 days
[18]
  half-life: 3.5 days
[19]
  half-life: 0.69 days
[20]
  half-life: 18.8 days
[21]
  half-life: 42 days
[22]
  half-life: 50.2 days
[23]
  half-life: 0.92 days
[24]
  half-life at 626.5 mg/l: 51.7 days
[25]
  half-life: 32.8 days
[26]
  half-life: 23.5 days
